Laboratory results published in patent EP0042348A1, “Olivacine derivatives and their therapeutical use” (priority 1980, dated 1981).
pIC50: −log10 of the molar value. Read-outs that look alike come from different tables or passages of the source.

How the values were obtained:
leucémie L 1210 = assay: Antitumour effect in DBA/2 mice inoculated i.p. with 10^5 L1210 leukaemia cells, single i.p. injection 24 h later; format: in vivo, souris; conditions: for effet thérapeutique antitumoral: change on quaternisation; for propriétés antitumorales: change on hydroxylation at position 10 of the named parent; for propriétés antitumorales chez l'animal (facteur d'accroissement): fold increase on methoxylation at position 10 of the named parent
Description: (§1) En pratique, on a utilisé des souris ayant reçu par voie intrapéritonéale un inoculum de cellules de leucémie L 1210 et ayant été, pour la moitié d'entre elles, soumises 24 heures après ladite inoculation tumorale à une injection intrapéritonéale d'une dose unique de l'un des composés à tester; l'autre moitié des souris a reçu une injection d'un volume identique d'un solvant inactif et servait de série témoin. On a réparti les souris au hasard dans chaque série expérimentale. Une première expérimentation de routine a permis de déterminer la mortalité par toxicité et de fixer ainsi les doses infra-létales.
Conformément à la convention en usage dans ce domaine, on considérait comme guéris les animaux qui survivaient plus de 45 jours après l'inoculation de cellules tumorales.
On a calculé le taux de survie à partir d'une analyse statistique des résultats expérimentaux, par comparaison avec les résultats obtenus avec la série témoin, selon les méthodes bien connues de Mann-Whitey et de Wilcoxon; le pourcentage de cellules leucémiques tuées par le traitement réalisé était calculé par la méthode décrite par H.E.Skipper et coll. dans les articles cités plus haut, en prenant pour base, suivant le cas, soit l'augmentation de la survie moyenne en l'absence de survivants soit le pourcentage de survivants.
[…] Après 24 heures, on a fait à une moitié de ces souris une injection unique par voie intrapéritonéale d'une dose variable du composé respectif à tester (éventuellement mis au préalable sous la forme de l'un de ses sels hydrosolubles, si nécessaire), tandis qu'on injectait par la même voie à l'autre moitié des souris un même volume de solvant; cette dernière moitié du groupe de souris servait donc de série témoin. On a réparti les souris au hasard dans chaque série expérimentale.

cellules L1210 = assay: In vitro growth inhibition of L1210 cells (48 h culture); conditions: for diminution de la cytotoxicité (facteur): fold decrease on quaternisation, versus the non-quaternised base; for pIC50: read-out: DI50 (Dose qui réduit de 50 % la croissance des cellules L1210)
[1] = Toxicity in mice after a single i.p. injection (maximal never-lethal dose); format: in vivo, souris; conditions: for DL0 (Dose maximale jamais mortelle): mice; for DL0 (i.p.): as printed in the compound cell of the dose-response table; for toxicités générales (facteur d'augmentation): change on hydroxylation at position 10 of the named parent; for augmentation de la toxicité (facteur): fold increase on quaternisation
Description: as §1
On a ainsi pu déterminer la mortalité par toxicité sous l'effet d'une injection unique de l'un des composés à différentes doses (doses infra-létales DL 50 et DL 100) et évaluer le taux de survie du groupe d'animaux auxquels on n'avait injecté qu'une dose infra-létale d'un composé selon l'invention.
Pour l'évaluation de l'activité thérapeutique des composés selon l'invention, on a exprimé les doses desdits composés en les rapportant à la dose infra-létale 30 jours, que l'on a posée égale à 1. Cette dose infra-létale s'est en effet avérée plus facile à déterminer pour les composés de l'invention que la DL 10, dont elle est d'ailleurs très voisine et qui est habituellement prise comme référence pour l'évaluation de l'activité thérapeutique de composés à effet antitumoral (voir H.E. Skipper et coll., ouvrages cités).

[2] = dose 0,1 of DL0, controls 9,2 days, 15 mice
[3] = dose 0,02 of DL0, controls 9,7 ± 0,9 days, 10 mice
[4] = dose 0,02 of DL0, controls 9,2 days, 15 mice
[5] = dose 0,5 of DL0, controls 9,2 days, 15 mice
[6] = dose 1 of DL0, controls 9,7 ± 0,9 days, 10 mice
[7] = dose 1 of DL0, controls 9,2 days, 15 mice
[8] = dose 0,8 of DL0, single i.p., ILS = T/C x 100
[9] = dose 0,01 of DL0, controls 9,3 ± 0,5 days, 15 mice
[10] = dose 0,1 of DL0, controls 9,3 ± 0,5 days, 15 mice
[11] = dose 0,01 of DL0, controls 9,7 ± 0,9 days, 10 mice
[12] = dose 0,05 of DL0, controls 9,3 ± 0,5 days, 15 mice
[13] = dose 0,5 of DL0, controls 9,3 ± 0,5 days, 15 mice
[14] = dose 0,5 of DL0, controls 9,7 ± 0,9 days, 10 mice
[15] = dose 1 of DL0, controls 9,3 ± 0,5 days, 15 mice
[16] = dose 0,005 of DL0, controls 9,3 ± 0,5 days, 15 mice
[17] = versus the non-quaternised base

Acétate de 4-méthyl 10-hydroxy olivacinium
effet thérapeutique antitumoral (leucémie L 1210): n'est pas modifiée | ILS (leucémie L 1210; dose 1 of DL0, single i.p., ILS = T/C x 100): 155% | diminution de la cytotoxicité (facteur) (cellules L1210): 28,1 | diminution de la cytotoxicité (facteur) (cellules L1210; listed as 10-hydroxy olivacine quaternarisée): ~30 | pIC50 (cellules L1210; L1210 cells, versus controls, after 48 h of culture): 6.25 | diminution de la toxicité (facteur) ([1]; fold decrease on quaternisation, versus the non-quaternised base): 2 | DL0 (Dose maximale jamais mortelle) [1]: 100 mg/kg

Cc1nccc2c(C)c3[nH]c4ccc(O)cc4c3cc12 [10-hydroxy olivacine (acétate)]
ILS (leucémie L 1210; [2]): non significatif | survie moyenne en jours des souris traitées (leucémie L 1210; [2]): 10,9 jours | survivants (leucémie L 1210; [2]): 0/15 | ILS (leucémie L 1210; [3]): non significatif | survie moyenne en jours des souris traitées (leucémie L 1210; [3]): 10,5 ± 0,8 jours | survivants (leucémie L 1210; [3]): 0/10 | ILS (leucémie L 1210; [4]): non significatif | survie moyenne en jours des souris traitées (leucémie L 1210; [4]): 9,6 jours | survivants (leucémie L 1210; [4]): 0/15 | ILS (leucémie L 1210; [5]): non significatif | survie moyenne en jours des souris traitées (leucémie L 1210; [5]): 12,1 jours | survivants (leucémie L 1210; [5]): 0/15 | % de cellules tumorales tuées (leucémie L 1210; [6]): 98,98% | ILS (leucémie L 1210; [6]): 148% | survie moyenne en jours des souris traitées (leucémie L 1210; [6]): 14,4 ± 1,3 jours | survivants (leucémie L 1210; [6]): 2/10 | ILS (leucémie L 1210; [7]): non significatif | survie moyenne en jours des souris traitées (leucémie L 1210; [7]): 11,8 jours | survivants (leucémie L 1210; [7]): 0/15 | DL0 (i.p.) [1]: 10-hydroxy olivacine (acétate) DL0(i.p.) = 50 mg

Cc1nccc2c(C)c3[nH]c4ccc(O)cc4c3cc12 [10-hydroxy olivacine]
ILS (leucémie L 1210; [8]): 139% | pIC50 (cellules L1210; Mus musculus, L1210, 48 h): 7.70 | DL0 (Dose maximale jamais mortelle) [1]: 50 mg/kg

Cc1nccc2c(C)c3[nH]c4ccccc4c3cc12 [olivacine]
propriétés antitumorales (leucémie L 1210): ne modifie que peu | effet thérapeutique antitumoral (leucémie L 1210): disparition de l'effet thérapeutique antitumoral | propriétés antitumorales chez l'animal (facteur d'accroissement) (leucémie L 1210): 1,3 | toxicités générales (facteur d'augmentation) [1]: 5

COc1ccc2[nH]c3c(C)c4ccnc(C)c4cc3c2c1 [10-méthoxy olivacine, reference compound]
ILS (leucémie L 1210; dose 0,66 of DL0, single i.p., ILS = T/C x 100): 147% | pIC50 (cellules L1210; Mus musculus, L1210, 48 h): 5.96 | DL0 (Dose maximale jamais mortelle) [1]: 150 mg/kg

CCN(CC)CC[n+]1ccc2c(C)c3[nH]c4ccc(O)cc4c3cc2c1C [4-β-diéthylaminoéthyl 10-OH olivacinium (acétate)]
% de cellules tumorales tuées (leucémie L 1210; [9]): 99% | ILS (leucémie L 1210; [9]): 128% | survie moyenne en jours des souris traitées (leucémie L 1210; [9]): 11,9 ± 1,1 jours | survivants (leucémie L 1210; [9]): 0/15 | % de cellules tumorales tuées (leucémie L 1210; [10]): 99,997% | ILS (leucémie L 1210; [10]): 162% | survie moyenne en jours des souris traitées (leucémie L 1210; [10]): 15,1 ± 1,4 jours | survivants (leucémie L 1210; [10]): 0/15 | % de cellules tumorales tuées (leucémie L 1210; [11]): 97% | ILS (leucémie L 1210; [11]): 120% | survie moyenne en jours des souris traitées (leucémie L 1210; [11]): 11,6 ± 1,1 jours | survivants (leucémie L 1210; [11]): 0/10 | % de cellules tumorales tuées (leucémie L 1210; [12]): 99,8% | ILS (leucémie L 1210; [12]): 136% | survie moyenne en jours des souris traitées (leucémie L 1210; [12]): 12,7 ± 0,4 jours | survivants (leucémie L 1210; [12]): 1/15 | % de cellules tumorales tuées (leucémie L 1210; [13]): ≃99,999% | ILS (leucémie L 1210; [13]): 240% | survie moyenne en jours des souris traitées (leucémie L 1210; [13]): 22,3 ± 4,4 jours | survivants (leucémie L 1210; [13]): 1/15 | % de cellules tumorales tuées (leucémie L 1210; [14]): 99,98% | ILS (leucémie L 1210; [14]): 150% | survie moyenne en jours des souris traitées (leucémie L 1210; [14]): 14,5 ± 2 jours | survivants (leucémie L 1210; [14]): 0/10 | ILS (leucémie L 1210; [8]): 182% | survivants sur 15 (leucémie L 1210; dose 0,8 of DL0, single i.p., out of 15 mice): 4 | % de cellules tumorales tuées (leucémie L 1210; [15]): ≃99,999% | ILS (leucémie L 1210; [15]): 182% | survie moyenne en jours des souris traitées (leucémie L 1210; [15]): 16,9 ± 3,7 jours | survivants (leucémie L 1210; [15]): 4/15 | % de cellules tumorales tuées (leucémie L 1210; [16]): 99% | ILS (leucémie L 1210; [16]): 127% | survie moyenne en jours des souris traitées (leucémie L 1210; [16]): 11,8 ± 0,8 jours | survivants (leucémie L 1210; [16]): 0/15 | pIC50 (cellules L1210; Mus musculus, L1210, 48 h): 6.63 | DL0 (i.p.) [1]: 4-β -diéthyl-aminoéthyl 10-hydroxy olivacinium (acétate) DL0 (i.p.) = 100 mg | DL0 (Dose maximale jamais mortelle) [1]: 125 mg/kg

Acétate de 4-méthyl olivacinium
propriétés antitumorales (leucémie L 1210): fait par contre apparaître des propriétés antitumorales | propriétés antitumorales chez l'animal (facteur d'accroissement) (leucémie L 1210): 1,7 | diminution de la cytotoxicité (facteur) (cellules L1210): 1,4 | augmentation de la cytotoxicité (facteur) (cellules L1210; fold increase on hydroxylation at position 10 of the named parent): 4 | toxicités générales (facteur d'augmentation) [1]: ne varient pas | augmentation de la toxicité (facteur) [1, 17]: 3,3

Acétate de 4-méthyl 10-méthoxy olivacinium
diminution de la cytotoxicité (facteur) (cellules L1210): 1,3 | augmentation de la toxicité (facteur) [1, 17]: 1,5
